One experiment has as its target T1, Rho-Kinase II (ROKα) (Rattus norvegicus, UniProt Q62868).
T1 construct: purchased Upstate Biotechnology
The experiment can be described thus: Inhibition of recombinant Rho-kinase II (ROKα), 33P-phosphate incorporation into S6 substrate peptide. The format is biochemical. To be noted: recombinant Rho-Kinase II (Upstate Biotechnology), S6 Phosphate-Acceptor-Peptide, 33P-ATP, 20 min at 37°C. An excerpt: (§1) In einem in vitro-Assay mit rekombinanter Rho-Kinase-II wird die Hemmung des Enzyms untersucht. Die gefäßrelaxierende Wirkung wird an Phenylephrin-induzierten Kontraktionen isolierter Ringe der Kaninchen-Arteria-Saphena bestimmt. Die Eignung der erfindungsgemäßen Verbindungen zur Behandlung von kardiovaskulären Erkrankungen kann durch Untersuchung der blutdrucksenkenden Wirkung an narkotisierten Ratten gezeigt werden.
Die Aktivität der Rho-Kinase wird durch den Einbau von ^33P-Phosphat in ein Substratpeptid bestimmt. Dazu wird kommerziell erhältliche Rho-Kinase II (Upstate Biotechnology) in Gegenwart des S6 Phosphate-Acceptor-Peptides mit den Testsubstanzen oder einer Lösungsmittelkontrolle 10 min bei 37°C vorinkubiert. Anschliessend wird die Kinase-Reaktion durch Zugabe von ^33P-markiertem ATP gestartet. Nach 20 min bei 37°C wird die Reaktion durch Zugabe von H3PO4 gestoppt. Aliquots werden auf Filter pipettiert, die Filter gewaschen und anschließend mit Scintillator beschichtet. Die Radioaktivität der am Filter gebundenen ^33P-markierten Peptide wird in einem Micro-Beta-Counter gemessen. Der IC50-Wert entspricht der Konzentration einer Testsubstanz bei welcher der Rho-Kinase katalysierte Einbau von ^33P in das Peptid im Vergleich zu einer Lösungsmittelkontrolle um 50 % gehemmt ist. Die experimentellen Daten sind in der folgenden Tabelle zusammengestellt.

In experiment [1] the test system is Kaninchen-Arteria-Saphena. The experiment can be described thus: Vasorelaxant effect in vitro: phenylephrine-induced contractions of isolated rabbit saphenous artery rings.
Excerpt: as §1
3 mm breite Ringe der isolierten Kaninchen-Arteria-Saphena werden einzeln in 5 ml-Organbäder mit 37°C warmer, carbogenbegaster Krebs-Henseleit-Lösung gebracht. Der Gefäßtonus wird isometrisch erfasst und registriert. Kontraktionen werden durch Zugabe von 3x10^-8 g/ml Phenylephrin induziert und nach 4 min wieder ausgewaschen. Nach mehreren Kontrollzyklen wird die zu untersuchende Substanz mit jedem weiteren Durchgang in steigender Dosierung vorinkubiert und die darauffolgende Kontraktion mit der Höhe der letzten Kontrollkontraktion verglichen. Es wird die Konzentration errechnet, die erforderlich ist, um die Höhe des Kontrollwertes um 50 % zu reduzieren (IC50). Die experimentellen Daten sind in der folgenden Tabelle zusammengestellt.

[2] abbreviates: isolated rings of rabbit Arteria saphena, contraction induced by 3x10^-8 g/ml Phenylephrin, concentration reducing control contraction by 50 %, read-out: IC50.

Like-named read-outs stand apart in the source and are kept apart here.

T1 sequence (Q62868 whole entry): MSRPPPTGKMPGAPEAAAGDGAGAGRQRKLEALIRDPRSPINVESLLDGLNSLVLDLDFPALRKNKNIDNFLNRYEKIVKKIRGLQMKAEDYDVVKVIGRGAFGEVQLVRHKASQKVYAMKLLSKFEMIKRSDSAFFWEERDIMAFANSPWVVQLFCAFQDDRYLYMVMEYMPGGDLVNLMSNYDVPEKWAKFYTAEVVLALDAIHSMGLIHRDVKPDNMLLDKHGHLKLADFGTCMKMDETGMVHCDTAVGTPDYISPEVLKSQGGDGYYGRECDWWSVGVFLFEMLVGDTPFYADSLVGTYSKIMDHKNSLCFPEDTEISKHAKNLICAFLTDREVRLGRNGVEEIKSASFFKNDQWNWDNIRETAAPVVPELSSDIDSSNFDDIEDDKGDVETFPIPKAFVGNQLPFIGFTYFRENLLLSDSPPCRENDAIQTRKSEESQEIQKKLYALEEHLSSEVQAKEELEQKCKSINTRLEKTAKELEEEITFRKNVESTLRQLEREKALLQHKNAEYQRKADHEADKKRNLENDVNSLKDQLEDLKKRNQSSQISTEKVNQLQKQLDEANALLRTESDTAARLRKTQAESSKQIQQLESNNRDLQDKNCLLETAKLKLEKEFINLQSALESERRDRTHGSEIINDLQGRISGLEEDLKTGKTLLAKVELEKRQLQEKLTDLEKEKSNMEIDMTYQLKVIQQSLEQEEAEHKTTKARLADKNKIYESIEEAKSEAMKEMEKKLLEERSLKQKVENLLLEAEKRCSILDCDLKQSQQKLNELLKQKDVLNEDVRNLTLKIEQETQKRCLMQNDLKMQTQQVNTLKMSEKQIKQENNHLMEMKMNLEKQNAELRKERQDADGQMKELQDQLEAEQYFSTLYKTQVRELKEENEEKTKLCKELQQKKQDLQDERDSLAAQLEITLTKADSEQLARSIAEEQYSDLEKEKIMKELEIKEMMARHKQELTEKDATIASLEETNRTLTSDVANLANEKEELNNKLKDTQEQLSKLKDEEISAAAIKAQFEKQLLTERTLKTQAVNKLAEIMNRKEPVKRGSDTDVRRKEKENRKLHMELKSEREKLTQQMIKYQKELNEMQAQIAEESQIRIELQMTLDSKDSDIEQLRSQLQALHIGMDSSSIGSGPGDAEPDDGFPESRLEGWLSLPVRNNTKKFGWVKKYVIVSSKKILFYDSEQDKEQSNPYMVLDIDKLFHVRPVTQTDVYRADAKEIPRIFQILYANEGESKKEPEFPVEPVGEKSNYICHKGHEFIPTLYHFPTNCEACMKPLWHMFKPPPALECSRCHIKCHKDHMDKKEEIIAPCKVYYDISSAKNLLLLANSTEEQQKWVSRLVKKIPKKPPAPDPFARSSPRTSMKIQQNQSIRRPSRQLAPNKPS

In the case of `Nc1nc(Nc2ccc(Sc3ccncc3)c(F)c2)cc(Oc2cccc(Cl)c2)n1` [Beispiel 56], at Rho-Kinase II (ROKα), the IC50 is 70 nM.

As for `Nc1nc(Nc2ccc(Sc3ccncc3)c(F)c2)cc(N2C[C@H]3CCCN[C@H]3C2)n1` [Beispiel 20], the values for the IC50 (at Rho-Kinase II (ROKα); in experiment [1]) were 11 nM and 1700 nM, respectively.

On to `Nc1nc(Nc2ccc(Sc3ccncc3)c(F)c2)cc(-c2ccc3ncccc3c2)n1` [Beispiel 1, N-[2-Amino-6-(6-chinolinyl)-4-pyrimidinyl]-N-[3-fluor-4-(4-pyridinylsulfanyl)-phenyl]amin], for which the IC50 is 7 nM at Rho-Kinase II (ROKα) and 760 nM in experiment [1] (setting [2]).

Regarding `Nc1nc(Nc2cc(F)c(Sc3ccncc3)c(Cl)c2)cc(N2C[C@H]3CCCN[C@H]3C2)n1` [Beispiel 22], the IC50 on Rho-Kinase II (ROKα) came to 6 nM; in experiment [1] (setting [2]) it was 900 nM.

As for `Nc1nc(Nc2cc(F)c(Sc3ccncc3)c(F)c2)cc(N2C[C@H]3CCCN[C@H]3C2)n1` [Beispiel 59], the IC50 on Rho-Kinase II (ROKα) worked out at 5 nM; in experiment [1] (setting [2]), 360 nM.

(Values after EP1515965B1, “PHENYLAMINOPYRIMIDINES AND THEIR USE AS RHO-KINASE INHIBITORS” (Bayer Schering Pharma Aktiengesellschaft, priority 2002, dated 2003).)
